Assay [1] has as its target T1, LH release (Rattus norvegicus, UniProt P30969).
T1 sequence (P30969 1-327): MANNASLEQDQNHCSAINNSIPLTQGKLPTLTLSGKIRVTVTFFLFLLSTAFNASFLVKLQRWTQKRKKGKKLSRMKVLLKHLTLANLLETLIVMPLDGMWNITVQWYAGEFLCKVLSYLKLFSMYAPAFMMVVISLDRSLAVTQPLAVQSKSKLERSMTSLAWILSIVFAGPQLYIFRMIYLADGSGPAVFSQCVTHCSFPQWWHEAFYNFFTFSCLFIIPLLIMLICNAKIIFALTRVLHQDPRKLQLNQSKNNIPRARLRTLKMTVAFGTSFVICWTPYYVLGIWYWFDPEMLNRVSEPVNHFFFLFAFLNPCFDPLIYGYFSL
The assay is described as follows: In vivo LH release in castrated rats. The note with it: dose producing half-maximal LH release, time integrated LH response; for ED50: rat, iv, i.v., read-out: ED50 ug/kg i.v. The protocol:
The compound to be tested is administered to castrated rats intraveneously and the serum LH concentration at various time points is measured by RIA. The time integrated LH response is calculated and the dose producing half-maximal LH release (ED50) is reported.

The target of assay [2] is T1, LH release. The assay can be described thus: In vitro LH release from dissociated rat pituitary cells (agonists). The format is cell-based. The note with it: negative log of concentration producing half-maximal release of LH, 3 hours at 37° C.
Method: Rat pituitaries are removed from immature female rats, minced, and dissociated with collagenase/hyaluronidase. They are allowed to attach to 48-well microtiter plates for 48-72 hours, then are exposed to test compounds for 3 hours at 37° C. The medium is assayed for released LH by RIA (radioimmunoassay).
For a further assay, the target named is T2, LHRH receptors (Rattus norvegicus, UniProt P30969).
T2 sequence (P30969 1-327): T1 sequence (P30969 1-327)
The assay is described as follows: Radioligand receptor binding assay, rat pituitary membranes. Particulars: radioiodinated [D-Leu6-des Gly10]-LHRH ethyl amide 50 pM, 2 hours at 4° C., read-out: Receptor Binding pkI (converted). The protocol: The radioligand (50 pM), receptors, and compounds to be tested are coincubated for 2 hours at 4° C. Bound ligand is separated from free ligand via centrifugation and aspiration.

Assay [3] has as its system LH concentration in the blood. The assay is described as follows: In vivo LH inhibition in male castrate rats. Particulars: AUC of log(LHt/LHi) over 24 hours, 30 ug/kg subcutaneous bolus. The arrangement: species or system rat. As to the method:
The compound to be tested is administered at 30 μg/kg subcutaneously by bolus injection to male castrate rats and blood samples are collected periodically over 24 hours. The AUC (area under the curve) of the LH supression data as a function of time is calculated using the formula log (LHt /LHi) wherein LHt is the LH concentration in the blood at time t and LHi is the initial baseline value for the concentration of LH in the blood. The AUC values are negative numbers.

Starred links: 1 amine or outer side, 2 acyl side, 3 side chain; linkers in the order of their positions; H or OH if unused. Non-standard residues stand in square brackets, D forms with d. Residues, ends and D or L forms follow the SMILES beside them. Groups on a side chain read outwards from the residue. *: point of attachment. dPhe(4-Cl) = N[C@H](Cc1ccc(Cl)cc1)C(=O)O; d1Nal = N[C@H](Cc1cccc2ccccc12)C(=O)O; d2Nal = N[C@H](Cc1ccc2ccccc2c1)C(=O)O; X1 = CCNC[C@@H](C(=O)[*:2])N(C)[*:1]; Lys(iPr) = CC(C)NCCCC[C@H](N)C(=O)O; NMeY = CN[C@@H](Cc1ccc(O)cc1)C(=O)O; d3Pal = N[C@H](Cc1cccnc1)C(=O)O; pGlu = O=C1CC[C@@H](C(=O)O)N1; Nicotinoyl = O=C(c1cccnc1)*; NMeS = CN[C@@H](CO)C(=O)O; Morpholide = C1CN(*)CCO1; CO = O=C([*:1])[*:2]; Sar = CNCC(=O)O

As for `CCNC(=O)[C@@H]1CCCN1C(=O)[C@H](CCCNC(=N)N)NC(=O)[C@H](CC(C)C)NC(=O)[C@@H](Cc1c[nH]c2ccccc12)NC(=O)[C@H](Cc1ccc(O)cc1)NC(=O)[C@H](CO)N(C)C(=O)[C@H](Cc1c[nH]c2ccccc12)NC(=O)[C@H](Cc1c[nH]cn1)NC(=O)[C@@H]1CCC(=O)N1` [Ex. 15, (pyro)Glu-His-Trp-N-Me-Ser-Tyr-D-Trp-Leu-Arg-Pro-NHEt], the ED50 at LH release [1] was 1.38 µg/kg. `CCNC(=O)[C@@H]1CCCN1C(=O)[C@H](CCCNC(=N)N)NC(=O)[C@H](CC(C)C)NC(=O)[C@@H](CC(C)C)NC(=O)[C@H](Cc1ccc(O)cc1)NC(=O)[C@H](CO)N(C)C(=O)[C@H](Cc1c[nH]c2ccccc12)NC(=O)[C@H](Cc1c[nH]cn1)NC(=O)[C@@H]1CCC(=O)N1` [Ex. 1, (pyro)Glu-His-Trp-N-Me-Ser-Tyr-D-Leu-Leu-Arg-Pro-NHEt] ([pGlu]HW[NMeS]Y[dL]LRP-NHEt): the “LH Release pD2” value at LH release [2] amounted to 9.43. Moreover, at LH release [1], the ED50 is 7.2 µg/kg.

Consider `CC(C)C[C@H](NC(=O)CNC(=O)[C@H](Cc1ccc(O)cc1)NC(=O)[C@H](CO)NC(=O)[C@H](Cc1c[nH]c2ccccc12)NC(=O)[C@H](Cc1c[nH]cn1)NC(=O)[C@@H]1CCC(=O)N1)C(=O)N[C@@H](CCCNC(=N)N)C(=O)N1CCC[C@H]1C(=O)NCC(N)=O` [LHRH, reference compound], for which the ED50 on LH release [1] was 100 µg/kg.

As to `CC(C)C[C@H](NC(=O)[C@@H](Cc1ccc2ccccc2c1)NC(=O)[C@H](Cc1ccc(O)cc1)NC(=O)[C@H](CO)N(C)C(=O)[C@H](Cc1c[nH]c2ccccc12)NC(=O)[C@H](Cc1c[nH]cn1)NC(=O)[C@@H]1CCC(=O)N1)C(=O)N[C@@H](CCCNC(=N)N)C(=O)N1CCC[C@H]1C(=O)NCC(N)=O` [Ex. 3, (pyro)Glu-His-Trp-N-Me-Ser-Tyr-D-(2)-Nal-Leu-Arg-Pro-Gly-NH2], the ED50 on LH release [1] was determined as 0.129 µg/kg. Regarding `CCNC(=O)[C@@H]1CCCN1C(=O)[C@H](CCCNC(=N)N)NC(=O)[C@H](CC(C)C)NC(=O)[C@@H](Cc1c[nH]c2ccccc12)NC(=O)[C@H](Cc1ccc(O)cc1)NC(=O)[C@H](CO)N(C)C(=O)[C@H](Cc1c[nH]c2ccccc12)NC(=O)[C@H](Cc1c[nH]cn1)NC(=O)CN(C)C(C)=O` [Ex. 14, N-AcSar-His-Trp-N-Me-Ser-Tyr-D-Trp-Leu-Arg-Pro-NHEt] (Ac-[Sar]HW[NMeS]Y[dW]LRP-NHEt), at LH release [1], the ED50 came to 0.39 µg/kg. In the case of `CC(=O)N[C@H](Cc1ccc2ccccc2c1)C(=O)N[C@H](Cc1ccc(Cl)cc1)C(=O)N[C@H](Cc1cccnc1)C(=O)N(C)[C@@H](CO)C(=O)N[C@@H](CCCCNC(=O)c1cccnc1)C(=O)N[C@H](CCCCNC(=O)c1cccnc1)C(=O)N[C@@H](CC(C)C)C(=O)N[C@@H](CCCCNC(C)C)C(=O)N1CCC[C@H]1C(=O)N[C@H](C)C(N)=O` [Ex. 35, N-Ac-D-2-Nal-D-4-Cl-Phe-D-3-Pal-N-Me-Ser-Lys-(N-epsilon-nicotinyl)-D-Lys-(N-epsilon-nicotinyl)-Leu-Lys-(N-epsilon-isopropyl)-Pro-D-AlaNH2] (Ac-[d2Nal][dPhe(4-Cl)][d3Pal][NMeS]K(Nicotinoyl)[dK](Nicotinoyl)L[Lys(iPr)]P[dA]-NH2), the Ki on LHRH receptors was 0.479 nM. Further, in assay [3], the “AUC (24 hr. after 30 ug/kg)” value was -510.

Regarding `CCNC(=O)CC[C@H](NC(=O)NCC)C(=O)N[C@@H](Cc1c[nH]cn1)C(=O)N[C@@H](Cc1c[nH]c2ccccc12)C(=O)N(C)[C@@H](CO)C(=O)N[C@@H](Cc1ccc(O)cc1)C(=O)N[C@H](Cc1c[nH]c2ccccc12)C(=O)N[C@@H](CC(C)C)C(=O)N[C@@H](CCCNC(=N)N)C(=O)N1CCC[C@H]1C(=O)NCC` [Ex. 12, (2)-N-(Ethylaminocarbonyl)-(5)-N-ethylamido-Glu-His-Trp-N-Me-Ser-Tyr-D-Trp- Leu-Arg-Pro-NHEt], the “LH Release pD2” value on LH release [2] worked out at 9.31. Further, the ED50 at LH release [1] was found to be 9.9 µg/kg. For the same compound, at LHRH receptors, the Ki was 1.05 nM. As to `CCNC[C@@H](C(=O)N[C@@H](Cc1ccc(O)cc1)C(=O)N[C@H](Cc1c[nH]c2ccccc12)C(=O)N[C@@H](CC(C)C)C(=O)N[C@@H](CCCNC(=N)N)C(=O)N1CCC[C@H]1C(=O)NCC)N(C)C(=O)[C@H](Cc1c[nH]c2ccccc12)NC(=O)[C@H](Cc1c[nH]cn1)NC(=O)CN(C)C(C)=O` [Ex. 7, N-Ac-Sar-His-Trp-(3)-N-Et-(2)-N-Me-Dap-Tyr-D-Trp-Leu-Arg-Pro-NHEt] (Ac-[Sar]HW[X1]Y[dW]LRP-NHEt), on LH release [2], the “LH Release pD2” value is 9.73. The compound further had an ED50 ug/kg i.v. at LH release [1] of 9.64 µg/kg.

`CC(=O)N[C@H](Cc1ccc2ccccc2c1)C(=O)N[C@H](Cc1ccc(Cl)cc1)C(=O)N[C@H](Cc1cccnc1)C(=O)N[C@@H](CO)C(=O)N(C)[C@@H](Cc1ccc(O)cc1)C(=O)N[C@H](CCCCNC(=O)N1CCOCC1)C(=O)N[C@@H](CC(C)C)C(=O)N[C@@H](CCCCNC(C)C)C(=O)N1CCC[C@H]1C(=O)N[C@H](C)C(N)=O` [Ex. 69] (Ac-[d2Nal][dPhe(4-Cl)][d3Pal]S[NMeY][dK]([CO-Morpholide])L[Lys(iPr)]P[dA]-NH2): at LHRH receptors, the Ki was 0.017 nM. Also, in assay [3], the “AUC (24 hr. after 30 ug/kg)” value is recorded as -467. With `CC(=O)N[C@H](Cc1ccc2ccccc2c1)C(=O)N[C@H](Cc1ccc(Cl)cc1)C(=O)N[C@H](Cc1cccnc1)C(=O)N[C@@H](CO)C(=O)N(C)[C@@H](Cc1ccc(O)cc1)C(=O)N[C@H](CCCCNC(=O)c1cccnc1)C(=O)N[C@@H](CC(C)C)C(=O)N[C@@H](CCCCNC(C)C)C(=O)N1CCC[C@H]1C(=O)N[C@H](C)C(N)=O` [Ex. 38, N-Ac-D-2-Nal-D-4-Cl-Phe-D-3-Pal-Ser-N-Me-Tyr-D-Lys(N-epsilon-nicotinyl)-Leu-Lys(N-epsilon-isopropyl)-Pro-D-AlaNH2] (Ac-[d2Nal][dPhe(4-Cl)][d3Pal]S[NMeY][dK](Nicotinoyl)L[Lys(iPr)]P[dA]-NH2), at LHRH receptors, the Ki was 0.0316 nM. The “AUC (24 hr. after 30 ug/kg)” value in assay [3] is listed as -1000.

`CC(=O)N(C)CC(=O)N[C@H](Cc1ccc(Cl)cc1)C(=O)N[C@H](Cc1cccc2ccccc12)C(=O)N[C@@H](CO)C(=O)N(C)[C@@H](Cc1ccc(O)cc1)C(=O)N[C@H](CCCCNC(=O)c1cccnc1)C(=O)N[C@@H](CC(C)C)C(=O)N[C@@H](CCCCNC(C)C)C(=O)N1CCC[C@H]1C(=O)N[C@H](C)C(N)=O` [Ex. 63, N-Ac-Sar-D-4-Cl-Phe-D-1-Nal-Ser-N-Me-Tyr-D-Lys(N-epsilon-nicotinyl)-Leu-Lys(N-epsilon-isopropyl)-Pro-D-AlaNH2] (Ac-[Sar][dPhe(4-Cl)][d1Nal]S[NMeY][dK](Nicotinoyl)L[Lys(iPr)]P[dA]-NH2): the Ki at LHRH receptors was 0.0447 nM. The “AUC (24 hr. after 30 ug/kg)” value in assay [3] is on record as -707.

Values taken from patent US5110904A (Abbott Laboratories, priority 1990, dated 1992).
